Laboratory results as given in PMC4492764, “Evaluation of biomarkers for in vitro prediction of drug-induced nephrotoxicity: comparison of HK-2, immortalized human proximal tubule epithelial, and primary cultures of human proximal tubular cells” (Pharmacology Research & Perspectives, 2015).
Counter-ions that a name gives are not always drawn.

What was measured:
Format in all cases: cell-based, human
NGAL [1] = experiment: NGAL protein ELISA in freshly isolated hPT cells; settings: for NGAL protein upregulation in hPT cells: high doses, within 24 h; for Upregulation of NGAL hPT P(L): protein levels in cell lysates, table title says 72 h time point
Experimental: (§1) hPT cells were derived from whole human kidneys procured by the International Institute for the Advancement of Medicine (Edison, NJ). All tissues were scored by a pathologist as normal (i.e., derived from noncancerous, nondiseased tissue). […] Whole kidneys were perfused with Wisconsin medium and kept on ice until they arrived at the laboratory, which was usually within 24 h of removal from the donor. All buffers were continuously bubbled with 95% O2/5% CO2 and were maintained at 37°C. Minced cortical pieces from whole kidneys were subjected to collagenase digestion for 60 min, after which the supernatant was filtered through a 70-μm mesh filter to remove tissue fragments, centrifuged at 150g for 7 min, and the pellet resuspended in Dulbecco’s Modified Eagle’s Medium: […] Approximately, 5–7 × 10^6 cells were obtained per 1 g of human kidney cortical tissue. […] Composition of this supplemented medium was based on earlier work establishing optimal conditions for primary culture of rat PT cells (Lash et al., [1995]). Basal medium was a 1:1 mixture of DMEM/F12. […] Cultures were grown at 37°C in a humidified incubator under an atmosphere of 95% air/5% CO2 at pH 7.4. Cultures were grown to approximately 80–90% confluence (generally 5–6 days) prior to experiments. Cells were harvested by either scraping the flasks with a Teflon scraper or by brief incubation with Cellstripper (Cellgro, Herndon, VA) (in Ca^2+- and Mg^2+-free Hanks’ buffer). KIM-1 (DY1750), NGAL (DY1757), and M-CSF (DY216) Duo-Set® ELISA kits were purchased from R&D systems (Minneapolis, MN). Sandwich-ELISA experiments were conducted following the manufacturer’s instructions with slight modifications. A 96-well microplate (MaxiSorp®, Nunc, Thermo Scientific, NSW, Australia) was coated with 100 μL of capture antibodies (diluted 1:200 in PBS) and incubated overnight. The plate was then washed twice with washing buffer (0.05% Tween 20 in PBS, pH 7.4) and blocked by adding 300 μL of blocking buffer (1% bovine serum albumin (BSA) in PBS) for 1 h at room temperature. After washing two times with PBS, 100 μL of samples (cell culture media or cell lysates) or standards were then added to each well and incubated for 2 h at room temperature. The biotinylated detection antibodies were then diluted in blocking buffer, added to each well and incubated for 2 h. Horseradish peroxidase (HRP)-labeled streptavidin (100 μL) was then added to bind to detection antibodies. To each well, 100 μL of substrate solution (1:1 mixture of H2O2 and tetramethylbenzidine) was added and incubated for 20 min before reaction termination with 50 μL of stop solution (2N H2SO4). The optical density of each well was measured at 450 nm using a POLARstar Omega plate reader (BMG Labtech). All assays were performed at least three times, with at least two technical replicates in each assay.

KIM-1 = KIM-1 protein ELISA in freshly isolated hPT cells; settings: for KIM-1 protein increase in hPT cell lysate: 24 h treatment; for KIM-1 protein upregulation in hPT cells: high doses, within 24 h; for Upregulation of KIM-1 hPT P(L): protein levels in cell lysates, table title says 72 h time point
Experimental: as §1

NGAL [2] = experiment: NGAL protein ELISA in HK-2 cells; design: key: +: statistically significant increase; −: no significant increase; settings: protein levels in culture medium; 72 h time point
Experimental: HK-2 cells (ATCC CRL-2190; Manassas, VA) were maintained in DMEM/F12 (Life Technologies; Sydney, NSW, Australia) supplemented with 5 μg/mL insulin, 5 μg/mL transferrin, 5 ng/mL sodium selenite (ITS; Roche; […] (passage 2) and culture kits were purchased from Lonza. […] were maintained in Renal Epithelial Cell BulletKitTM (CC-3190, Lonza) at 37°C and 5% CO2 atmosphere. Cells were passaged to 96-well plates with a density of 4000 cells/well. After 24 h culture, compounds with different concentration series were added into each well and incubated for 4, 24, 48, and 72 h. KIM-1 (DY1750), NGAL (DY1757), and M-CSF (DY216) Duo-Set® ELISA kits were purchased from R&D systems (Minneapolis, MN). Sandwich-ELISA experiments were conducted following the manufacturer's instructions with slight modifications. A 96-well microplate (MaxiSorp®, Nunc, Thermo Scientific, NSW, Australia) was coated with 100 μL of capture antibodies (diluted 1:200 in PBS) and incubated overnight. The plate was then washed twice with washing buffer (0.05% Tween 20 in PBS, pH 7.4) and blocked by adding 300 μL of blocking buffer (1% bovine serum albumin (BSA) in PBS) for 1 h at room temperature. After washing two times with PBS, 100 μL of samples (cell culture media or cell lysates) or standards were then added to each well and incubated for 2 h at room temperature. The biotinylated detection antibodies were then diluted in blocking buffer, added to each well and incubated for 2 h. Horseradish peroxidase (HRP)-labeled streptavidin (100 μL) was then added to bind to detection antibodies. To each well, 100 μL of substrate solution (1:1 mixture of H2O2 and tetramethylbenzidine) was added and incubated for 20 min before reaction termination with 50 μL of stop solution (2N H2SO4). The optical density of each well was measured at 450 nm using a POLARstar Omega plate reader (BMG Labtech). All assays were performed at least three times, with at least two technical replicates in each assay.

NGAL mRNA = NGAL mRNA qRT-PCR in hRPTECs; design: key to Upregulation of NGAL hRPTECs R: +: statistically significant increase; −: no significant increase; settings: for NGAL mRNA levels in hRPTECs: 72 h exposure; for Upregulation of NGAL hRPTECs R: mRNA levels, 72 h time point
Experimental: HK-2 cells (ATCC CRL-2190; Manassas, VA) were maintained in DMEM/F12 (Life Technologies; Sydney, NSW, Australia) supplemented with 5 μg/mL insulin, 5 μg/mL transferrin, 5 ng/mL sodium selenite (ITS; Roche; […] (passage 2) and culture kits were purchased from Lonza. […] were maintained in Renal Epithelial Cell BulletKitTM (CC-3190, Lonza) at 37°C and 5% CO2 atmosphere. Cells were passaged to 96-well plates with a density of 4000 cells/well. After 24 h culture, compounds with different concentration series were added into each well and incubated for 4, 24, 48, and 72 h. HK-2 and […] were treated with compounds for 4, 24, 48, and 72 h, then the cells were lysed and the RNA reverse transcribed with the TaqMan® Gene Expression Cells-to-CTTM Kit (Life Technologies) according to the manufacturer's instructions. […] Hs00273334_m1), Lcn2 (NGAL; Hs01008571_m1), and Csf1 (M-CSF; Hs00174164_m1). All probes span an exon-exon junction. The real-time quantitative reverse transcription PCR (qRT-PCR) was performed in a 10 μl final reaction mixture using a ViiA 7TM system (Applied Biosystems®, Sydney, NSW, Australia) based on the following thermo cycling conditions: 10 min at 95°C for one cycle, 15 sec at 95°C, 60 sec at 60°C for 40 cycles. The ViiA 7TM software was used for data analysis with Hprt1 expression used for normalization. All assays were performed at least three times, with at least two technical replicates in each assay.

Molecule	NGAL protein upregulation in hPT cells (NGAL [1])	Upregulation of NGAL hPT P(L) (NGAL [1])	KIM-1 protein increase in hPT cell lysate (KIM-1; 100 μmol/L) [fold]	KIM-1 protein upregulation in hPT cells (KIM-1)	Upregulation of KIM-1 hPT P(L) (KIM-1)	Upregulation of NGAL HK-2 P (NGAL [2])	NGAL mRNA levels in hRPTECs (NGAL mRNA; 10 μmol/L, P < 0.05)	Upregulation of NGAL hRPTECs R (NGAL mRNA)	KIM-1 protein increase in hPT cell lysate (KIM-1; 300 μmol/L)	NGAL mRNA levels in hRPTECs (NGAL mRNA; 100 μmol/L, P < 0.01)
N.N.[Cl][Pt][Cl] [Cisplatin, cisplatin]	significant upregulation	>60-fold	32	significant upregulation	>32-fold	−	kept rising	+		
CNC(C)C1CCC(N)C(OC2C(N)CC(N)C(OC3OCC(C)(O)C(NC)C3O)C2O)O1 (centres unmarked) [Gentamicin, gentamicin sulfate]	significant upregulation	>60-fold		significant upregulation	Greater than fivefold	−		−	fivefold	
Colistin sulfate	significant upregulation	>60-fold		significant upregulation	>12-fold	−		+	12 fold	kept rising
